From patent US20020161052A1, “Terminally-branched polymeric linkers and polymeric conjugates containing the same” (priority 2001, published 2002) come the findings set out here.

Assay [1] deals with P388/O (murine lymphoid neoplasm) cell line. The assay is described as follows: In vitro bioassay, cell growth by Alamar Blue. Type of assay: cell-based. To be noted: Mus musculus, 72 h; P388/O cells, three days, 37° C., in duplicate; SD ± 10%. The protocol:
A series of in vitro assays were conducted to determine the IC50 for unmodified Ara-C and compound 10 using the P388/O (murine lymphoid neoplasm, Southern Research Institute) cell line. The P388/0 cells were grown in RPMI 1640 medium (Whittaker Bioproducts, Walkersville, Md.) +10% FBS (Hyclone Inc., Logan UT). Bioassays were performed in their respective media containing antibiotics and fungizone.
Ara-C was dissolved in DMSO and diluted to the appropriate concentration in culture media. The PEG-Ara-C compounds were dissolved in water and diluted to the appropriate concentrations in culture media.
The assays were performed in duplicate in 96-well microtiter cell culture plates. Two fold serial dilution of the compounds were done in the microtiter plates. Cells were detached by incubating with 0.1% Trypsin/Versene at 37°. Trypsin was inactivated by adding the appropriate media for each cell line containing 10% FBS. To each well of the microtiter plates, 10,000 cells were added. After three days, cell growth was measured by addition of a metabolic indicator dye, Alamar Blue, according to the manufacturer's protocol. The IC50 value for the test compounds and reference compound are provided above in the Table.
On the technique in general: The colour change of resazurin is a common sign of viable cells or microbes.

Assay [2] concerns LX-1. The assay is described as follows: LX-1 subcutaneous tumor in athymic nude mice. Type of assay: in vivo. To be noted: 100 mg/kg, i.v. q3d×4, athymic nude mice; mean baseline tumor volume 1000 mm^3.
Protocol: Athymic nude mice were implanted subcutaneous with a 4-5 mm^3 tissue fragment of LX-1 collected from donor mice. The tumor trocar site was observed twice weekly and measured once palpable. The tumor volume for each mouse was determined by measuring two dimensions with calipers and calculated using the formula: tumor volume=(length×width^2)/2. […] The mice were sorted to evenly distribute tumor size, grouped into 4 to 6 mice/group, and ear punched for permanent identification. Drugs were administered intravenously q3d×4 (Day 1, 4, 7 and 10) via the tail vein at an approximate rate of 0.5 mL per minute.

Broadly, the IC50 is the concentration that gives 50% inhibition. With `Nc1ccn([C@@H]2O[C@H](CO)[C@@H](O)[C@@H]2O)c(=O)n1` [Ara-C, cytosine arabinoside], the IC50 in assay [1] was 10 nM. The “LX-1 % T/C” value in assay [2] amounted to 74.0%.
